The text below walks through data of patent US11548900B2, “Oxazino-quinazoline and oxazino-quinoline type compound, preparation method and uses thereof” (BEIJING SCITECH-MQ PHARMACEUTICALS LIMITED, priority 2018, dated 2023).

For orientation: IC50 means the point on the concentration scale where inhibition reaches its midpoint. A high value points to a need for much substance.

One assay concerns the target HER2 kinase (Homo sapiens (Human), UniProt P04626). Description: Inhibition of HER2 kinase activity (ULight-labeled PolyGT substrate). It is filed as biochemical. The following applies: HER2 kinase 10 nM, ATP 10 μM, 2 hours. As for the experimental part:
(§1) The assay for the inhibition of EGFR and HER2 kinase activity by small molecular compounds was carried out using the method as follows:
(§2) 1) Dilution of the compounds
(§3) In a 96-well plate a, the compounds were diluted with DMSO using a 3-fold gradient dilution to form 11 concentrations, the 12th concentration is pure DMSO (as a positive control); and in a new 96-well plate b the above solutions were diluted 25 times with ultrapure water (DMSO concentration is 4%).
(§4) 2) Transferring the compounds to 384-well plate
(§5) The compound solutions diluted with ultrapure water in the 96-well plate b above was transferred to the corresponding wells of a 384-well plate in duplicate.
(§6) 3) Addition of 4×kinase solution: 2.5 μl of the above 4× kinase solution was taken using multichannel pipette and added to the corresponding reaction wells of the 384-well plate, mixed well and pre-reacted at room temperature for 5 minutes.
(§7) 4) Addition of 2×substrate/ATP mixed solution: 5 μl of the above 2×substrate/ATP mixed solution was taken using multichannel pipette and added to the corresponding reaction wells of the 384-well plate.
(§8) 5) Negative control: negative control wells were set in the 384-well plate, and 2.5 μl 4×substrate, 2.5 μl 4×enzyme solution, 2.5 μl 1×Kinase Assay Buffer and 2.5 μl ultrapure water containing 4% DMSO were added to each well.
(§9) 6) Mixed by centrifugation and kept at room temperature for 2 hours in the dark.
(§10) 7) Termination of the enzymatic reaction:
(§11) 5 μl of the above 4× stop solution was pipetted to the corresponding wells of the 384-well plate, centrifuged and mixed, and reacted at room temperature for 5 minutes.
(§12) 5 μl of the above 4× detection solution was pipetted into the corresponding wells of the 384-well plate, centrifuged and mixed, and reacted at room temperature for 1 hour.
(§13) 9) The 384-well plate was placed into a microplate reader and the signal was detected using the corresponding program.
(§14) 10) IC50 analysis: Well reading value=10000*EU665 value/EU615 value Inhibition rate=(reading value of positive control well−reading value of experimental well)/(reading value of positive control well−reading value of negative control well)*100% Corresponding IC50s can be calculated by entering the drug concentrations and the corresponding inhibition rates into GraphPad Prism 5.
Conditions of experiment for screening HER2 kinase inhibitory molecules:
The final concentration of HER2 kinase in the reaction system is 10 nM, the final concentration of ATP is 10 μM, the final concentration of substrate ULight™-labeled PolyGT is 100 nM, and the enzymatic reaction time is 2 hours.
(§15) The maximum final concentration of the compound in the reaction system is 2.5 μM, 11 concentrations were made with a 3-fold gradient dilution, and the minimal final concentration is 0.042 nM. The final concentration of DMSO is 1%.

The next assay concerns the target EGFR kinase (Homo sapiens (Human), UniProt P00533). Description: Inhibition of EGFR kinase activity (ULight-labeled JAK-1 (Tyr1023) peptide substrate). It counts as biochemical. Particulars: EGFR kinase 0.35 nM, ATP 150 μM, 2 hours. As for the experimental part:
as §1, §2, §3, §4, §5, §6, §7, §8, §9, §10, §11, §12, §13, §14
Conditions of experiment for screening EGFR kinase inhibitory molecules:
The final concentration of EGFR kinase in the reaction system is 0.35 nM, and the final concentration of ATP is 150 μM, the final concentration of substrate ULight™-labeled JAK-1 (Tyr1023) Peptide is 100 nM, and the enzymatic reaction time is 2 hours.
as §15

Another assay deals with BT474 cells. Description: Inhibition of cell proliferation, BT474 (CCK-8, 72 h). It is filed as cell-based. The following applies: Homo sapiens, BT-474, 72 h incubation. As for the experimental part:
The assay for the inhibition of cell proliferation by small molecular compounds was carried out using the method as follows:
1. 600 μL pancreatin was added to a T75 cell culture flask, which was digested in a 37° C. incubator for about 1 min before 5 mL of DMEM complete culture solution was added, blew evenly, transferred to a 15 mL centrifuge tube, and centrifuged at 1000 rpm for 4 min;
2. The supernatant was removed and 5 mL DMEM complete culture solution was added, blew evenly, and 10 μL cell suspension was taken and mixed with 10 μL 0.4% Trypan Blue, and counted using a cell counter;
3. BT474 and HCC827 cell lines were seeded in 96-well plates at a cell density of 10,000 and 3000 cells/well/80 μL, respectively, and cultured overnight. Only sterile water was added to the 36 wells on the periphery of the 96-well plate without adding cells, and only the 60 wells in the center of the 96-well plate were used for cell assays and controls;
4. Dilution of compounds: the compounds were diluted with a 3-fold dilution to make 10 concentrations in total with an initial concentration of 10 mM;
5. 20 μL of different compounds with different concentrations were added to each well, and 20 μL of complete culture solution was added to the remaining wells. The final concentration of DMSO in each well is 0.25%;
6. After 72 h of incubation, 10 μL CCK-8 reagent was added to each well, and incubated at 37° C. for 1-2 h; and the OD value was read at 450 nm;
7. Cell survival rate (%)=[(As−Ab)/(Ac−Ab)]*100%
As: Assay well (medium containing cell, CCK-8, compound)
Ac: Control well (medium containing cell, CCK-8)
Ab: Blank well (CCK-8, medium without cell and compound)
8. The value was imported into Graphpad Prism5 software for the calculation of IC50s (compound concentration at which 50% maximum survival rate is observed).

Chain of HER2 kinase (P04626 23-1255): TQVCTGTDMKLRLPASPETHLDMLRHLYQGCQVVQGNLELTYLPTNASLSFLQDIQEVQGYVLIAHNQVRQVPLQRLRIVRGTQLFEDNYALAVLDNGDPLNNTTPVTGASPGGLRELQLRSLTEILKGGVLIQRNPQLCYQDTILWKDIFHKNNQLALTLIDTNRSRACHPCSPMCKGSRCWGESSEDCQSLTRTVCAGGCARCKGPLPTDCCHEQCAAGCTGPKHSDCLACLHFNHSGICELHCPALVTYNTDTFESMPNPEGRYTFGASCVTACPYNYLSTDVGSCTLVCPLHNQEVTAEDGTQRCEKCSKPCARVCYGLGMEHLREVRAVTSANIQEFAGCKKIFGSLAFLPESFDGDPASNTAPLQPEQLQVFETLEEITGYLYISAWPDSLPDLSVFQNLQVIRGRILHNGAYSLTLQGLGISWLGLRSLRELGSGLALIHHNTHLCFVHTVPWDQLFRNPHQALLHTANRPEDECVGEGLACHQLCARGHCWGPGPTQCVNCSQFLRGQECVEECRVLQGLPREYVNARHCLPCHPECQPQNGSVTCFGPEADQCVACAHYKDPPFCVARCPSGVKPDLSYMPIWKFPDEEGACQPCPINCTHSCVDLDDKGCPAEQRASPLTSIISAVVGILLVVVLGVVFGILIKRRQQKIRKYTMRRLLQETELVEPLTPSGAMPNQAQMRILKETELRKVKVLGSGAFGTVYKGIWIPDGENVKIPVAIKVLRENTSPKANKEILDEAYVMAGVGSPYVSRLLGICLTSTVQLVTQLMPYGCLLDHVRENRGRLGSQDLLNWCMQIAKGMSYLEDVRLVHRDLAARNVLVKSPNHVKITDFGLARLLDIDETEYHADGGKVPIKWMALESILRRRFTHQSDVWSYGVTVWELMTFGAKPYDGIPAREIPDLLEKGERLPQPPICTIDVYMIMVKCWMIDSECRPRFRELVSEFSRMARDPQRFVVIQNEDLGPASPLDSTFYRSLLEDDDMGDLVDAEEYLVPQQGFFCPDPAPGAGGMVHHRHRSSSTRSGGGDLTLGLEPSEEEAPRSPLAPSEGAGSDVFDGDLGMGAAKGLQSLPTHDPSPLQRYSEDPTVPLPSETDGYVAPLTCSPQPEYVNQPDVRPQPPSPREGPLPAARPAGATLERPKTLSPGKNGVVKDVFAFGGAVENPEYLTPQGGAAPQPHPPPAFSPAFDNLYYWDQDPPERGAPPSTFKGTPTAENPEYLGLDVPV
Chain of EGFR kinase (P00533 25-1210): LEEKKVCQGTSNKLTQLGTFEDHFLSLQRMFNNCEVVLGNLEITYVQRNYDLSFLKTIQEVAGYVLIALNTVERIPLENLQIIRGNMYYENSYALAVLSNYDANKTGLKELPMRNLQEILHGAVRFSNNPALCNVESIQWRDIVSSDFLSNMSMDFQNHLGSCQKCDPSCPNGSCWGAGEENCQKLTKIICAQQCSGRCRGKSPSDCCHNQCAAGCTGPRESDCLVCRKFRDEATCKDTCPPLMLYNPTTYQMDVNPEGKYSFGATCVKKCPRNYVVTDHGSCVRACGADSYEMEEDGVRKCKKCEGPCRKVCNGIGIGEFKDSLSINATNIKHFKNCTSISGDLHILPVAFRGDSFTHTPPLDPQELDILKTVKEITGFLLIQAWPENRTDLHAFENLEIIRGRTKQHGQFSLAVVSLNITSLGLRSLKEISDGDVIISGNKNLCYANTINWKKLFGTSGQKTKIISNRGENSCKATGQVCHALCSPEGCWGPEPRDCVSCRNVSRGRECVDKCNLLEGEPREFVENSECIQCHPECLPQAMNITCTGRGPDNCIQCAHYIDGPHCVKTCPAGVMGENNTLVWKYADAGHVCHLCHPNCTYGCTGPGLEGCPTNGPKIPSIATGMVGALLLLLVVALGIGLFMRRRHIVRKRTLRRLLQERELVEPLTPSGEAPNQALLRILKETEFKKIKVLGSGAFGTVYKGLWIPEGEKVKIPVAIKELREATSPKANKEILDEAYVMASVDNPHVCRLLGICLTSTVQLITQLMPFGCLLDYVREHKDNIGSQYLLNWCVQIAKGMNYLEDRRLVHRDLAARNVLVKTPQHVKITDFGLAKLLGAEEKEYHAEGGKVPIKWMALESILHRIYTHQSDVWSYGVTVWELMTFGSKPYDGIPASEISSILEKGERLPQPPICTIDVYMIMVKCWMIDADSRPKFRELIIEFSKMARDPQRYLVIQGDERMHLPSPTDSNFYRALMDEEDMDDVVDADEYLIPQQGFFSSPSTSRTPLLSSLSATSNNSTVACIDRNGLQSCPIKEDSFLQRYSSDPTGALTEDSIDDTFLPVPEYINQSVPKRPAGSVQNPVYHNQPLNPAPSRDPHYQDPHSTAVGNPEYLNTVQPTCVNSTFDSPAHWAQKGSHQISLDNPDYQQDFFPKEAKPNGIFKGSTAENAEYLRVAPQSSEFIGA

Consider `C=CC(=O)N1CCOc2c1ccc1ncnc(Nc3ccc(Oc4ccccc4)cc3)c21` [Example 2, 1-(10-((4-phenoxyphenyl)amino)-2,3-dihydro-4H-[1,4]oxazino[2,3-f]quinazolin-4-yl)prop-2-en-1-one], for which the IC50 on HER2 kinase and at EGFR kinase was not above 50 nM in each case.
Regarding `C=CC(=O)N1CCOc2c1ccc1ncnc(Nc3ccc(OCc4cccc(F)c4)c(Cl)c3)c21` [Example 3], the IC50 at HER2 kinase and against EGFR kinase was not above 50 nM each time.
In turn, `C=CC(=O)N1CCOc2c1ccc1ncnc(Nc3ccc(Sc4ccc(F)cc4)cc3)c21` [Example 28, 1-(10-((4-((4-fluorophenyl)thio)phenyl)amino)-2,3-dihydro-4H-[1,4]oxazino[2,3-f]quinazolin-4-yl)prop-2-en-1-one] showed an IC50 against HER2 kinase not above 50 nM.
`C=CC(=O)N1CCOc2c1ccc1ncnc(Nc3ccc(Oc4ccccc4)cc3F)c21` [Example 29, 1-(10-((2-fluoro-4-phenoxyphenyl)amino)-2,3-dihydro-4H-[1,4]oxazino[2,3-f]quinazolin-4-yl)prop-2-en-1-one] yielded an IC50 on HER2 kinase not above 50 nM.
For the compound `C=CC(=O)N1CCOc2c1ccc1ncnc(Nc3ccc(Oc4ccccc4OCCN(C)C)cc3)c21` [Example 30, 1-(10-((4-(2-(2-(dimethylamino)ethoxy)phenoxy)phenyl)amino)-2,3-dihydro-4H-[1,4]oxazino[2,3-f]quinazolin-4-yl)prop-2-en-1-one], the IC50 against HER2 kinase is not above 50 nM.
`C=CC(=O)N1CCOc2c1ccc1ncnc(Nc3ccc(Oc4ccccc4OCCCN(C)C)cc3)c21` [Example 31, 1-(10-((4-(2-(3-(dimethylamino)propoxy)phenoxy)phenyl)amino)-2,3-dihydro-4H-[1,4]oxazino[2,3-f]quinazolin-4-yl)prop-2-en-1-one]: the IC50 against HER2 kinase lay in the range of 50 to 500 nM.
`C=CC(=O)N1CCOc2c1ccc1ncnc(Nc3ccc(Oc4ccccc4OCCOC)cc3)c21` [Example 32, 1-(10-((4-(2-(2-methoxyethoxy)phenoxy)phenyl)amino)-2,3-dihydro-4H-[1,4]oxazino[2,3-f]quinazolin-4-yl)prop-2-en-1-one] showed an IC50 against HER2 kinase not above 50 nM.
On the same count and under the same terms, the same measure for `C=CC(=O)N1CCOc2c1ccc1ncnc(Oc3ccc(Oc4ccc(Cl)cc4)cc3)c21` [Example 36, 1-(10-(4-(4-chlorophenoxy)phenoxy)-2,3-dihydro-4H-[1,4]oxazino[2,3-f]quinazolin-4-yl)prop-2-en-1-one]: not above 50 nM; for `C=CC(=O)N1CCOc2c1ccc1ncnc(Oc3ccc(Oc4cc(Cl)ccc4Cl)cc3)c21` [Example 38, 1-(10-(4-(2,5-dichlorophenoxy)phenoxy)-2,3-dihydro-4H-[1,4]oxazino[2,3-f]quinazolin-4-yl)prop-2-en-1-one]: not above 50 nM; for `O=C(/C=C/CN1CCCCC1)N1CCOc2c1ccc1ncnc(Nc3ccc(Oc4ccccc4)cc3F)c21` [Example 97, (E)-1-(10-((2-fluoro-4-phenoxyphenyl)amino)-2,3-dihydro-4H-[1,4]oxazino[2,3-f]quinazolin-4-yl)-4-(piperidin-1-yl)but-2-en-1-one]: not above 50 nM.
`O=C(/C=C/CN1CCCCC1)N1CCOc2c1ccc1ncnc(Nc3ccc(Oc4ccccc4)c(F)c3)c21` [Example 98, (E)-1-(10-((3-fluoro-4-phenoxyphenyl)amino)-2,3-dihydro-4H-[1,4]oxazino[2,3-f]quinazolin-4-yl)-4-(piperidin-1-yl)but-2-en-1-one] registered an IC50 against HER2 kinase not above 50 nM.
Turning to `CN1CCC[C@@H]1/C=C/C(=O)N1CCOc2c1ccc1ncnc(Nc3ccc(OCc4ccccn4)c(Cl)c3)c21` [Example 114], the IC50 against HER2 kinase and in the assay with BT474 cells was not above 50 nM each time.
Turning to `O=C(/C=C/CN1CCC(O)CC1)N1CCOc2c1ccc1ncnc(Nc3ccc(OCc4ccccn4)c(Cl)c3)c21` [Example 115, (E)-1-(10-((3-chloro-4-(pyridin-2-ylmethoxy)phenyl)amino)-2,3-dihydro-4H-[1,4]oxazino[2,3-f]quinazolin-4-yl)-4-(4-hydroxypiperidin-1-yl)but-2-en-1-one], the IC50 against HER2 kinase and in the assay with BT474 cells was not above 50 nM in each case.
Consider `O=C(/C=C/CN1CCC(CO)CC1)N1CCOc2c1ccc1ncnc(Nc3ccc(OCc4ccccn4)c(Cl)c3)c21` [Example 117, (E)-1-(10-((3-chloro-4-(pyridin-2-ylmethoxy)phenyl)amino)-2,3-dihydro-4H-[1,4]oxazino[2,3-f]quinazolin-4-yl)-4-(4-(hydroxymethyl)piperidin-1-yl)but-2-en-1-one], for which the IC50 against HER2 kinase and with BT474 cells was not above 50 nM in each case.
Take `O=C(/C=C/CN1CCC(F)CC1)N1CCOc2c1ccc1ncnc(Nc3ccc(OCc4ccccn4)c(Cl)c3)c21` [Example 118, (E)-1-(10-((3-chloro-4-(pyridin-2-ylmethoxy)phenyl)amino)-2,3-dihydro-4H-[1,4]oxazino[2,3-f]quinazolin-4-yl)-4-(4-fluoropiperidin-1-yl)but-2-en-1-one]: the IC50 at HER2 kinase and in the assay with BT474 cells was not above 50 nM each time.
`CN(C/C=C/C(=O)N1CCOc2c1ccc1ncnc(Nc3ccc(OCc4ccccn4)c(Cl)c3)c21)CCCO` [Example 120, (E)-1-(10-((3-chloro-4-(pyridin-2-ylmethoxy)phenyl)amino)-2,3-dihydro-4H-[1,4]oxazino[2,3-f]quinazolin-4-yl)-4-((3-hydroxypropyl)(methyl)amino)but-2-en-1-one]: the IC50 against HER2 kinase and in the assay on BT474 cells was not above 50 nM each time.
On to `C[C@H]1CN(C)CCN1C/C=C/C(=O)N1CCOc2c1ccc1ncnc(Nc3ccc(OCc4ccccn4)c(Cl)c3)c21` [Example 121, (S,E)-1-(10-((3-chloro-4-(pyridin-2-ylmethoxy)phenyl)amino)-2,3-dihydro-4H-[1,4]oxazino[2,3-f]quinazolin-4-yl)-4-(2,4-dimethylpiperazin-1-yl)but-2-en-1-one], for which the IC50 against HER2 kinase and in the assay with BT474 cells was not above 50 nM each time.
On to `CN(C/C=C/C(=O)N1CCOc2c1ccc1ncnc(Nc3ccc(OCc4ccccn4)c(Cl)c3)c21)CCO` [Example 122, (E)-1-(10-((3-chloro-4-(pyridin-2-ylmethoxy)phenyl)amino)-2,3-dihydro-4H-[1,4]oxazino[2,3-f]quinazolin-4-yl)-4-((2-hydroxyethyl)(methyl)amino)but-2-en-1-one], for which the IC50 at HER2 kinase and with BT474 cells was not above 50 nM in each case.
For the compound `C[C@@H]1CN(C)CCN1C/C=C/C(=O)N1CCOc2c1ccc1ncnc(Nc3ccc(OCc4ccccn4)c(Cl)c3)c21` [Example 123, (R,E)-1-(10-((3-chloro-4-(pyridin-2-ylmethoxy)phenyl)amino)-2,3-dihydro-4H-[1,4]oxazino[2,3-f]quinazolin-4-yl)-4-(2,4-dimethylpiperazin-1-yl)but-2-en-1-one], the IC50 on HER2 kinase and with BT474 cells was not above 50 nM each time.
